# Test results taken from patent publication US10105357B2, “Indication of antibiotic drugs for preparation of cancer inhibition pharmaceutical composition” (LAUNX BIOMEDICAL CO., LTD., priority 2014, dated 2018).
# Read-outs that look alike come from different tables or passages of the source.
# Key:
# [1] = tested on: HI650 (Lung Adenocarcinoma); experiment: Cell viability analysis, lung cancer HI650; assay type: cell-based, human; conditions: for viability at 10 µM: Homo sapiens
# [2] = tested on: A549 (Lung Adenocarcinoma); experiment: Cell viability analysis, lung cancer A549; assay type: cell-based, human; conditions: A549; for viability at 10 µM: Homo sapiens
# [3] = tested on: AGS (Gastric Adenocarcinoma); experiment: Cell viability analysis, gastric cancer AGS; assay type: cell-based, human; conditions: for viability at 10 µM: Homo sapiens
# [4] = tested on: MKN-45 (Gastric Adenocarcinoma); experiment: Cell viability analysis, gastric cancer MKN-45; assay type: cell-based, human; conditions: MKN-45; for viability at 10 µM: Homo sapiens
# [5] = tested on: HepG2 (Hepatocellular Carcinoma); experiment: Cell viability analysis, hepatic cancer HepG2; assay type: cell-based, human; conditions: HepG2; for viability at 10 µM: Homo sapiens
# [6] = tested on: Hep3B (hepatocellular carcinoma); experiment: Cell viability analysis, hepatic cancer Hep3B; assay type: cell-based, human; conditions: Hep3B
# [7] = tested on: LoVo (Colorectal Adenocarcinoma); experiment: Cell viability analysis, colon cancer LoVo; assay type: cell-based, human; conditions: LoVo; for viability at 10 µM: Homo sapiens
# [8] = tested on: A375 (Amelanotic Melanoma); experiment: Cell viability analysis, skin cancer A375; assay type: cell-based, human; conditions: for viability at 10 µM: Homo sapiens
# [9] = tested on: BCC (basal cell carcinoma); experiment: Cell viability analysis, skin cancer BCC; assay type: cell-based, human
# [10] = tested on: HeLa (Cervix Adenocarcinoma); experiment: Cell viability analysis, cervical cancer HeLa; assay type: cell-based, human; conditions: HeLa; for viability at 10 µM: Homo sapiens
# [11] = tested on: C-33A (Cervical carcinoma); experiment: Cell viability analysis, cervical cancer C-33A; assay type: cell-based, human
# [12] = tested on: PC3 (p53−) (Prostate Adenocarcinoma); experiment: Cell viability analysis, prostate cancer PC3; assay type: cell-based, human; conditions: for viability at 10 µM: Homo sapiens
# [13] = tested on: TSGH-8301 (Urinary Bladder Carcinoma); experiment: Cell viability analysis, bladder cancer TSGH-8301; assay type: cell-based, human; conditions: for viability at 10 µM: Homo sapiens
# T24 = experiment: Cell viability analysis, bladder cancer T24; assay type: cell-based, human
# [14] = tested on: MCF7 (Mammary Gland, Adenocarcinoma); experiment: Cell viability analysis, breast cancer MCF7; assay type: cell-based, human; conditions: for viability at 10 µM: Homo sapiens
# [15] = tested on: MDA-MB-231 (Mammary Gland, Adenocarcinoma); experiment: Cell viability analysis, breast cancer MDA-MB-231; assay type: cell-based, human
# BxPC-3 = experiment: Cell viability analysis, pancreatic cancer BxPC-3; assay type: cell-based, human
# AsPC-1 = experiment: Cell viability analysis, pancreatic cancer AsPC-1; assay type: cell-based, human
# NIH: OVCAR-3 = experiment: Cell viability analysis, ovarian cancer NIH: OVCAR-3; assay type: cell-based, human
# TOV-21G = experiment: Cell viability analysis, ovarian cancer TOV-21G; assay type: cell-based, human
# [16] = tested on: SAS (Tongue squamous cell carcinoma); experiment: Cell viability analysis, tongue cancer SAS; assay type: cell-based, human
# U-2OS = experiment: Cell viability analysis, osteosarcoma U-2OS; assay type: cell-based, human; conditions: U2OS
# [17] = tested on: 786-O (Renal adenocarcinoma); experiment: Cell viability analysis, renal cancer 786-O; assay type: cell-based, human
# [18] = tested on: HL-60 (Acute Promyelocytic Leukemia); experiment: Cell viability analysis, leukemia HL-60; assay type: cell-based, human; conditions: Homo sapiens, HL-60; drug 10 μM, 72 hours, WST-1, OD450 nm; read-out: cell viability (survival rate), HL-60
# [19] = tested on: HCT116 (p53+) (Colorectal Carcinoma)
compound,measurement,setting,value
"CCC[C@H](NC(=O)[C@@H]1[C@H]2CCC[C@H]2CN1C(=O)[C@@H](NC(=O)[C@@H](NC(=O)c1cnccn1)C1CCCCC1)C(C)(C)C)C(=O)C(=O)NC1CC1 [Telaprevir (VX-950), Telaprevir]",viability at 10 µM,"[1]; NCI-H1650, 72 h, H1650, repeated experiment, read-out: The results of antibiotic drug inhibiting cancer cell lines (cell viability analysis), H1650",107%
same,viability at 10 µM,"[1]; NCI-H1650, drug 10 μM, 72 hours, WST-1, OD450 nm, read-out: cell viability (survival rate), H1650",51.6%
same,viability at 10 µM,"[2]; 72 h, repeated experiment, read-out: The results of antibiotic drug inhibiting cancer cell lines (cell viability analysis), A549",80.4%
same,viability at 10 µM,"[2]; drug 10 μM, 72 hours, WST-1, OD450 nm, read-out: cell viability (survival rate), A549",49.3%
same,viability at 10 µM,"[3]; 72 h, AGS, repeated experiment, read-out: The results of antibiotic drug inhibiting cancer cell lines (cell viability analysis), AGS",111%
same,viability at 10 µM,"[3]; drug 10 μM, 72 hours, WST-1, OD450 nm, read-out: cell viability (survival rate), AGS",49.2%
same,viability at 10 µM,"[4]; 72 h, repeated experiment, read-out: The results of antibiotic drug inhibiting cancer cell lines (cell viability analysis), MKN-45",107%
same,viability at 10 µM,"[4]; drug 10 μM, 72 hours, WST-1, OD450 nm, read-out: cell viability (survival rate), MKN-45",48%
same,viability at 10 µM,"[5]; 72 h, repeated experiment, read-out: The results of antibiotic drug inhibiting cancer cell lines (cell viability analysis), HepG2",114%
same,viability at 10 µM,"[5]; drug 10 μM, 72 hours, WST-1, OD450 nm, read-out: cell viability (survival rate), HepG2",100%
same,viability at 10 µM,"[6]; Homo sapiens, 72 h, read-out: The results of antibiotic drug inhibiting cancer cell lines (cell viability analysis), Hep3B",121%
same,viability at 10 µM,"[7]; 72 h, repeated experiment, read-out: The results of antibiotic drug inhibiting cancer cell lines (cell viability analysis), LoVo",87%
same,viability at 10 µM,"[7]; drug 10 μM, 72 hours, WST-1, OD450 nm, read-out: cell viability (survival rate), LoVo",73.7%
same,viability at 10 µM,"[8]; A-375, 72 h, A375, repeated experiment, read-out: The results of antibiotic drug inhibiting cancer cell lines (cell viability analysis), A375",105%
same,viability at 10 µM,"[8]; A-375, drug 10 μM, 72 hours, WST-1, OD450 nm, read-out: cell viability (survival rate), A375",131%
same,viability at 10 µM,"[9]; Homo sapiens, 72 h, read-out: The results of antibiotic drug inhibiting cancer cell lines (cell viability analysis), BCC",92.5%
same,viability at 10 µM,"[10]; 72 h, repeated experiment, read-out: The results of antibiotic drug inhibiting cancer cell lines (cell viability analysis), HeLa",92.6%
same,viability at 10 µM,"[10]; drug 10 μM, 72 hours, WST-1, OD450 nm, read-out: cell viability (survival rate), HeLa",84%
same,viability at 10 µM,"[11]; Homo sapiens, C-33-A, 72 h, read-out: The results of antibiotic drug inhibiting cancer cell lines (cell viability analysis), C-33A",102%
same,viability at 10 µM,"[12]; 72 h, PC-3, repeated experiment, read-out: The results of antibiotic drug inhibiting cancer cell lines (cell viability analysis), PC-3",89.2%
same,viability at 10 µM,"[12]; drug 10 μM, 72 hours, WST-1, OD450 nm, read-out: cell viability (survival rate), PC3",50%
same,viability at 10 µM,"[13]; 72 h, TSGH-8301, repeated experiment, read-out: The results of antibiotic drug inhibiting cancer cell lines (cell viability analysis), TSGH-8301",103%
same,viability at 10 µM,"[13]; drug 10 μM, 72 hours, WST-1, OD450 nm, read-out: cell viability (survival rate), TSGH",50.2%
same,viability at 10 µM,"T24; Homo sapiens, T-24, 72 h, read-out: The results of antibiotic drug inhibiting cancer cell lines (cell viability analysis), T24",115%
same,viability at 10 µM,"[14]; MCF7, 72 h, MCF-7, repeated experiment, read-out: The results of antibiotic drug inhibiting cancer cell lines (cell viability analysis), MCF-7",76.4%
same,viability at 10 µM,"[14]; MCF7, drug 10 μM, 72 hours, WST-1, OD450 nm, read-out: cell viability (survival rate), MCF7",61.6%
same,viability at 10 µM,"[15]; Homo sapiens, MDA-MB-231, 72 h, read-out: The results of antibiotic drug inhibiting cancer cell lines (cell viability analysis), MDA-MB231",95.6%
same,viability at 10 µM,"BxPC-3; Homo sapiens, BXPC-3, 72 h, read-out: The results of antibiotic drug inhibiting cancer cell lines (cell viability analysis), BxPC-3",63.9%
same,viability at 10 µM,"AsPC-1; Homo sapiens, ASPC1, 72 h, read-out: The results of antibiotic drug inhibiting cancer cell lines (cell viability analysis), AsPC-1",69.3%
same,viability at 10 µM,"NIH: OVCAR-3; Homo sapiens, OVCAR-3, 72 h, read-out: The results of antibiotic drug inhibiting cancer cell lines (cell viability analysis), NIH-OVCAR-3",95.6%
same,viability at 10 µM,"TOV-21G; Homo sapiens, TOV21G, 72 h, read-out: The results of antibiotic drug inhibiting cancer cell lines (cell viability analysis), TOV-21G",81.6%
same,viability at 10 µM,"[16]; Homo sapiens, 72 h, read-out: The results of antibiotic drug inhibiting cancer cell lines (cell viability analysis), SAS",67.6%
same,viability at 10 µM,"U-2OS; Homo sapiens, 72 h, read-out: The results of antibiotic drug inhibiting cancer cell lines (cell viability analysis), U2OS",63.4%
same,viability at 10 µM,"[17]; Homo sapiens, 786-0, 72 h, read-out: The results of antibiotic drug inhibiting cancer cell lines (cell viability analysis), 786-O",94.8%
same,viability at 10 µM,[18],111%
same,viability,[19],93.6%
CC[C@H](C)[C@H]1O[C@]2(CC[C@@H]1C)C[C@@H]1C[C@@H](C/C=C(\C)[C@@H](O[C@H]3C[C@H](OC)[C@@H](O[C@H]4C[C@H](OC)[C@@H](O)[C@H](C)O4)[C@H](C)O3)[C@@H](C)/C=C/C=C3\CO[C@@H]4[C@H](O)C(C)=C[C@@H](C(=O)O1)[C@]34O)O2 [Ivermectin],"The results of antibiotic drug inhibiting cancer cell lines (cell viability analysis), H1650","[1]; H1650, repeated experiment",50.2
same,"The results of antibiotic drug inhibiting cancer cell lines (cell viability analysis), A549",[2]; repeated experiment,33.35
same,"The results of antibiotic drug inhibiting cancer cell lines (cell viability analysis), AGS","[3]; AGS, repeated experiment",79.82
same,"The results of antibiotic drug inhibiting cancer cell lines (cell viability analysis), MKN-45",[4]; repeated experiment,102.1
same,"The results of antibiotic drug inhibiting cancer cell lines (cell viability analysis), HepG2",[5]; repeated experiment,65.3
same,"The results of antibiotic drug inhibiting cancer cell lines (cell viability analysis), Hep3B",[6]; repeated experiment,63.22
same,"The results of antibiotic drug inhibiting cancer cell lines (cell viability analysis), LoVo",[7]; repeated experiment,53.26
same,"The results of antibiotic drug inhibiting cancer cell lines (cell viability analysis), A375","[8]; A375, repeated experiment",44.36
same,"The results of antibiotic drug inhibiting cancer cell lines (cell viability analysis), BCC","[9]; BCC, repeated experiment",33.64
same,"The results of antibiotic drug inhibiting cancer cell lines (cell viability analysis), HeLa",[10]; repeated experiment,58.86
same,"The results of antibiotic drug inhibiting cancer cell lines (cell viability analysis), C-33A","[11]; C-33A, repeated experiment",85.05
same,"The results of antibiotic drug inhibiting cancer cell lines (cell viability analysis), PC-3","[12]; PC-3, repeated experiment",27.87
same,"The results of antibiotic drug inhibiting cancer cell lines (cell viability analysis), TSGH-8301","[13]; TSGH-8301, repeated experiment",63.74
same,"The results of antibiotic drug inhibiting cancer cell lines (cell viability analysis), T24","T24; T24, repeated experiment",101.7
same,"The results of antibiotic drug inhibiting cancer cell lines (cell viability analysis), MCF-7","[14]; MCF-7, repeated experiment",48.13
same,"The results of antibiotic drug inhibiting cancer cell lines (cell viability analysis), MDA-MB231","[15]; MDA-MB231, repeated experiment",83.03
same,"The results of antibiotic drug inhibiting cancer cell lines (cell viability analysis), BxPC-3","BxPC-3; BxPC-3, repeated experiment",65.76
same,"The results of antibiotic drug inhibiting cancer cell lines (cell viability analysis), AsPC-1","AsPC-1; AsPC-1, repeated experiment",41.75
same,"The results of antibiotic drug inhibiting cancer cell lines (cell viability analysis), NIH-OVCAR-3","NIH: OVCAR-3; NIH-OVCAR-3, repeated experiment",61.85
same,"The results of antibiotic drug inhibiting cancer cell lines (cell viability analysis), TOV-21G","TOV-21G; TOV-21G, repeated experiment",42.41
same,"The results of antibiotic drug inhibiting cancer cell lines (cell viability analysis), SAS","[16]; SAS, repeated experiment",41.52
same,"The results of antibiotic drug inhibiting cancer cell lines (cell viability analysis), U2OS",U-2OS; repeated experiment,50.69
same,"The results of antibiotic drug inhibiting cancer cell lines (cell viability analysis), 786-O","[17]; 786-O, repeated experiment",55.69
same,viability,[19],62.7%
